In patent publication US20070128217A1 (priority 2003, published 2007):

What was measured:
[1] = tested on: antibodies in sera from SARS patients (sera 1a, 1b, 2, 6, 37, 62, London, SARS-yellow, SARS-green); assay type: binding, human; parameters: Binding of serum 6 to linear peptides of protein X1 of SARS-CoV Urbani / Binding of serum 37 to linear peptides of protein X1 of SARS-CoV Urbani / Binding of serum 6 to looped/cyclic peptide (PEPSCAN-ELISA) / Binding of serum 37 to looped/cyclic peptide (PEPSCAN-ELISA) / Binding of serum 37 to looped/cyclic peptides of protein X1 of SARS-CoV Urbani / Binding of serum 6 to linear peptides of protein X2 / Binding of serum 37 to linear peptides of protein X2 / Binding of serum 37 to looped/cyclic peptides of protein X2 of SARS-CoV Urbani / Binding of serum 6 to linear peptides of protein M of SARS-CoV Urbani / Binding of serum 37 to linear peptides of protein M of SARS-CoV Urbani / Binding of serum 6 to looped/cyclic peptides of protein M of SARS-CoV Urbani / Binding of serum 37 to looped/cyclic peptides of protein M of SARS-CoV Urbani / Binding of serum 6 to linear peptides of protein X3 of SARS-CoV Urbani / Binding of serum 37 to linear peptides of protein X3 of SARS-CoV Urbani / Binding of serum 37 to looped/cyclic peptides of protein X3 of SARS-CoV Urbani / Binding of serum 6 to linear peptides of protein X4 of SARS-CoV Urbani / Binding of serum 37 to linear peptides of protein X4 of SARS-CoV Urbani / Binding of serum 37 to looped/cyclic peptides of protein X4 of SARS-CoV Urbani / Binding of serum 6 to linear peptides of protein X5 of SARS-CoV Urbani / Binding of serum 37 to linear peptides of protein X5 of SARS-CoV Urbani / Binding of serum 37 to looped/cyclic peptides of protein X5 of SARS-CoV Urbani / Binding of serum 6 to linear peptides of protein N of SARS-CoV Urbani / Binding of serum 37 to linear peptides of protein N of SARS-CoV Urbani / Binding of serum 6 to linear peptide (PEPSCAN-ELISA) / Binding of serum 1a to looped/cyclic peptides of protein N of SARS-CoV Urbani / Binding of serum 1b to looped/cyclic peptides of protein N of SARS-CoV Urbani / Binding of serum 2 to looped/cyclic peptides of protein N of SARS-CoV Urbani / Binding of serum 6 to looped/cyclic peptides of protein N of SARS-CoV Urbani / Binding of serum 37 to looped/cyclic peptides of protein N of SARS-CoV Urbani / Binding of serum 62 to looped/cyclic peptides of protein N of SARS-CoV Urbani / Binding of serum London to looped/cyclic peptides of protein N of SARS-CoV Urbani / Binding of serum SARS-green to looped/cyclic peptides of protein N of SARS-CoV Urbani: unit not given here
[2] = tested on: control sera (pooled serum of ten healthy LUMC hospital workers; commercial negative donor pooled serum from the Dutch bloodbank); assay type: binding, human; parameters: Binding of Control serum LUMC to linear peptides / Binding of Control serum Blood-bank to linear peptides / Binding of Control serum LUMC to looped peptides / Binding of Control Serum Blood-Bank to Looped peptides / Binding of Control serum LUMC to linear peptides of the protein M of SARS-CoV Urbani / Binding of Control serum Blood-bank to linear peptides of the protein M of SARS-CoV Urbani / Binding of Control serum LUMC to looped peptides of the protein M of SARS-CoV Urbani / Binding of Control Serum Blood-Bank to Looped peptides of the protein M of SARS-CoV Urbani: unit not given here
[3] = tested on: rabbit serum obtained by immunizing a rabbit with the SARS-CoV strain Frankfurt 1; assay type: binding; parameters: Binding of a rabbit serum to linear peptides / Binding of a rabbit serum to looped peptides / Rabbit serum linear peptides / Rabbit serum looped peptides / Binding of a rabbit serum to linear peptides of protein N of SARS-CoV Urbani (Rabbit serum linear peptides) / Binding of a rabbit serum to looped/cyclic peptides of protein N of SARS-CoV Urbani (Rabbit serum looped peptides): unit not given here

## KFALTCTSTHFAFAC
[1]
  Binding of serum 1a to linear peptides of protein X4 of SARS-CoV Urbani: 0.8
  Binding of serum 1a to looped/cyclic peptides of protein X4 of SARS-CoV Urbani: 1.0
  Binding of serum 1b to linear peptides of protein X4 of SARS-CoV Urbani: 0.6
  Binding of serum 1b to looped/cyclic peptides of protein X4 of SARS-CoV Urbani: 0.7
  Binding of serum 2 to linear peptides of protein X4 of SARS-CoV Urbani: 0.5
  Binding of serum 2 to looped/cyclic peptides of protein X4 of SARS-CoV Urbani: 0.9
  Binding of serum 6 to linear peptides of protein X4 of SARS-CoV Urbani: 0.8
  Binding of serum 6 to looped/cyclic peptides of protein X4 of SARS-CoV Urbani: 0.7
  Binding of serum 37 to linear peptides of protein X4 of SARS-CoV Urbani: 0.8
  Binding of serum 37 to looped/cyclic peptides of protein X4 of SARS-CoV Urbani: 0.7
  Binding of serum 62 to linear peptides of protein X4 of SARS-CoV Urbani: 0.8
  Binding of serum 62 to looped/cyclic peptides of protein X4 of SARS-CoV Urbani: 0.9
  Binding of serum London to linear peptides of protein X4 of SARS-CoV Urbani: 0.8
  Binding of serum London to looped/cyclic peptides of protein X4 of SARS-CoV Urbani: 0.4
  Binding of serum SARS-green to linear peptides of protein X4 of SARS-CoV Urbani: 0.4
  Binding of serum SARS-green to looped/cyclic peptides of protein X4 of SARS-CoV Urbani: 0.8
  Binding of serum SARS-yellow to linear peptides of protein X4 of SARS-CoV Urbani: 0.6
  Binding of serum SARS-yellow to looped/cyclic peptides of protein X4 of SARS-CoV Urbani: 0.8
[2]
  Binding of Control Serum Blood-Bank to Looped peptides: 0.9
  Binding of Control serum Blood-bank to linear peptides: 0.7
  Binding of Control serum LUMC to linear peptides: 0.7
  Binding of Control serum LUMC to looped peptides: 0.8
[3]
  Rabbit serum linear peptides: 0.5
  Rabbit serum looped peptides: 0.6

## KFTTSLSLHKLLQTL
[1]
  Binding of serum 1a to linear peptides of protein X2: 0.5
  Binding of serum 1a to looped/cyclic peptides of protein X2 of SARS-CoV Urbani: 0.5
  Binding of serum 1b to linear peptides of protein X2: 0.4
  Binding of serum 1b to looped/cyclic peptides of protein X2 of SARS-CoV Urbani: 0.4
  Binding of serum 2 to linear peptides of protein X2: 0.4
  Binding of serum 2 to looped/cyclic peptides of protein X2 of SARS-CoV Urbani: 0.5
  Binding of serum 6 to linear peptides of protein X2: 0.6
  Binding of serum 6 to looped/cyclic peptides of protein X2 of SARS-CoV Urbani: 0.4
  Binding of serum 37 to linear peptides of protein X2: 0.5
  Binding of serum 37 to looped/cyclic peptides of protein X2 of SARS-CoV Urbani: 0.5
  Binding of serum 62 to linear peptides of protein X2: 0.6
  Binding of serum 62 to looped/cyclic peptides of protein X2 of SARS-CoV Urbani: 0.5
  Binding of serum London to linear peptides of protein X2: 0.5
  Binding of serum London to looped/cyclic peptides of protein X2 of SARS-CoV Urbani: 0.6
  Binding of serum SARS-green to linear peptides of protein X2: 0.4
  Binding of serum SARS-green to looped/cyclic peptides of protein X2 of SARS-CoV Urbani: 0.4
  Binding of serum SARS-yellow to linear peptides of protein X2: 0.5
  Binding of serum SARS-yellow to looped/cyclic peptides of protein X2 of SARS-CoV Urbani: 0.3
[2]
  Binding of Control Serum Blood-Bank to Looped peptides: 0.5
  Binding of Control serum Blood-bank to linear peptides: 0.6
  Binding of Control serum LUMC to linear peptides: 0.4
  Binding of Control serum LUMC to looped peptides: 0.5
[3]
  Binding of a rabbit serum to linear peptides: 0.2
  Binding of a rabbit serum to looped peptides: 0.4

## KGFQFICNLLLLFVT
[1]
  Binding of serum 1a to linear peptides of protein X1 of SARS-CoV Urbani: 0.6
  Binding of serum 1a to looped/cyclic peptide (PEPSCAN-ELISA): 0.6
  Binding of serum 1b to linear peptides of protein X1 of SARS-CoV Urbani: 0.5
  Binding of serum 1b to looped/cyclic peptide (PEPSCAN-ELISA): 0.4
  Binding of serum 2 to linear peptides of protein X1 of SARS-CoV Urbani: 0.6
  Binding of serum 2 to looped/cyclic peptide (PEPSCAN-ELISA): 0.4
  Binding of serum 6 to linear peptides of protein X1 of SARS-CoV Urbani: 0.5
  Binding of serum 6 to looped/cyclic peptide (PEPSCAN-ELISA): 1.0
  Binding of serum 37 to linear peptides of protein X1 of SARS-CoV Urbani: 0.6
  Binding of serum 37 to looped/cyclic peptide (PEPSCAN-ELISA): 0.6
  Binding of serum 62 to linear peptides of protein X1 of SARS-CoV Urbani: 0.7
  Binding of serum 62 to looped/cyclic peptide (PEPSCAN-ELISA): 0.6
  Binding of serum London to linear peptides of protein X1 of SARS-CoV Urbani: 0.3
  Binding of serum London to looped/cyclic peptide (PEPSCAN-ELISA): 1.1
  Binding of serum SARS-green to linear peptides of protein X1 of SARS-CoV Urbani: 0.2
  Binding of serum SARS-green to looped/cyclic peptide (PEPSCAN-ELISA): 0.4
  Binding of serum SARS-yellow to linear peptides of protein X1 of SARS-CoV Urbani: 0.6
  Binding of serum SARS-yellow to looped/cyclic peptide (PEPSCAN-ELISA): 0.6
[2]
  Binding of Control Serum Blood-Bank to Looped peptides: 0.5
  Binding of Control serum Blood-bank to linear peptides: 0.7
  Binding of Control serum LUMC to linear peptides: 0.7
  Binding of Control serum LUMC to looped peptides: 0.5
[3]
  Binding of a rabbit serum to linear peptides: 0.6
  Binding of a rabbit serum to looped peptides: 0.5
